Test results taken from US20080132484A1, “Method for Identifying Inhibitors Using a Homology Model of Polo-Like Kinase 1” (CYCLACEL LIMITED, priority 2003, published 2008).
Entries after “also recorded” stand apart in the source; their conditions may differ. Where two headings read alike, the source gives them in different places. Values belong to the compound of their own block, whether it stands above or below them.

Experiments:
PLK1 [1] = target: T1, PLK1 (Homo sapiens, UniProt P53350); test: PLK1 kinase assay (CDC25C phosphorylation, [γ-32P]-ATP); type: biochemical; conditions: for inhibition of PLK1 function: at concentrations up to 0.2 mM; for inhibition of PLK1: even at concentrations as high as 1 mM
T1 construct: The PLK1 ORF was cloned into pSSP1 such that the resulting PLK1 translation product would have a 19 amino acid N-terminal tag; made in house; host or cells: Sf9 insect cells (baculovirus)
Description: PLK1 kinase activity was assayed using human CDC25C phosphatase as a substrate. The assays were carried out using 96-well microtitre plates by incubating CDC25C (2 μg/well) with 1 μg/well of purified human recombinant PLK1 and varying concentrations of the candidate compound in a total volume of […] of 20 mM Tris/HCl buffer pH 7.5, supplemented with 25 mM β-glycerophosphate, 5 mM EGTA, 1 mM DTT, and 1 mM NaVO3. Reaction was initiated by the addition of 100 μM ATP and 0.5 μCi of [γ-^32P]-ATP. The reaction mixture was incubated at 30° C. for 1 h, then stopped with 75 mM aq orthophosphoric acid, transferred onto a 96-well P81 filter plate (Whatman), dried, and the extent of CDC25C phosphorylation was assessed by scintillation counting using a Packard TopCount plate reader.
Adenosine, N-ethyhnaleimide, iodoacetamide, and thimerosal were obtained from Sigma Chemical Co. 2′-Thioadenosine was obtained from Calbiochem. […] All compounds were made up as 10 mM stocks in neat dimethylsulfoxide and fresh dilutions to the desired concentrations were made in assay buffer prior to the assay. The candidate compounds were incubated with the enzyme in the kinase assay buffer for the duration of the assay, usually 1 hour at 30° C. […] For each compound duplicate samples, one of which contained dithiothreitol (DTT) at 1 mM final concentration, were assayed.

PLK1 [2] = target: T1, PLK1; test: Kinetic analysis of PLK1 inhibition (ATP dependence); type: biochemical
Human recombinant CKII = target: T2, Human recombinant CKII (Homo sapiens, UniProt P68400); test: Casein Kinase II (CKII) assay; type: biochemical; conditions: at concentrations up to 0.2 mM
T2 construct: purchased New England Biolabs
Description: Reaction was initiated by the addition of 100 μM ATP and 0.25 μCi of [γ-^32P]-ATP. The reaction mixture was incubated at 30° C. for 15 minutes, then stopped with 75 mM aq orthophosphoric acid, transferred onto a 96-well P81 filter plate (Whatman), dried, and the extent of peptide phosphorylation was assessed by scintillation counting using a Packard TopCount plate reader.

PKA = PKA (Homo sapiens, UniProt P17612); conditions: Table 14, published values; cited from earlier work
CDK2 = CDK2 (Homo sapiens, UniProt P24941); test: CDK2 inhibition; type: biochemical; conditions: Table 12
[3] = in the absence of dithiothreitol, read-out: IC50 (μM) − DTT
[4] = in the presence of dithiothreitol (1 mM), read-out: IC50 (μM) + DTT
[5] = Table 14, read-out: Plk1 (IC50)
[6] = Kinase inhibition, flavonoid compounds, read-out: Plk1 IC50
[7] = read-out: IC50 with respect to PLK1

T1 sequence (P53350 whole entry): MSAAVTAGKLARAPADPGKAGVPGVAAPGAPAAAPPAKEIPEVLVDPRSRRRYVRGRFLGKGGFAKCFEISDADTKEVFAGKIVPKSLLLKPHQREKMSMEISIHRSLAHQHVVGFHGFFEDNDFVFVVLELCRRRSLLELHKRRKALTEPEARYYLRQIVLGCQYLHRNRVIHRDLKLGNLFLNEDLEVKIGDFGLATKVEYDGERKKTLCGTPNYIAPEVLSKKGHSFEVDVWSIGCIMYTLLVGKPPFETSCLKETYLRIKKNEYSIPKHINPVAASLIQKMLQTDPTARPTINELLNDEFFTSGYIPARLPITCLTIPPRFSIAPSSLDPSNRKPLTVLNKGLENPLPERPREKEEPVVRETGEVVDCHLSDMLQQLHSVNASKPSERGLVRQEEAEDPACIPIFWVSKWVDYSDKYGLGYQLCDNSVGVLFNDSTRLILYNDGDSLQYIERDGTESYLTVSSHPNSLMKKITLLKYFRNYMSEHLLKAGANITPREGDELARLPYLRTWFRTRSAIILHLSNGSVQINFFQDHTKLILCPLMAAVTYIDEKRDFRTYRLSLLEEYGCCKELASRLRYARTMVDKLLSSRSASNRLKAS
T2 sequence (P68400 whole entry): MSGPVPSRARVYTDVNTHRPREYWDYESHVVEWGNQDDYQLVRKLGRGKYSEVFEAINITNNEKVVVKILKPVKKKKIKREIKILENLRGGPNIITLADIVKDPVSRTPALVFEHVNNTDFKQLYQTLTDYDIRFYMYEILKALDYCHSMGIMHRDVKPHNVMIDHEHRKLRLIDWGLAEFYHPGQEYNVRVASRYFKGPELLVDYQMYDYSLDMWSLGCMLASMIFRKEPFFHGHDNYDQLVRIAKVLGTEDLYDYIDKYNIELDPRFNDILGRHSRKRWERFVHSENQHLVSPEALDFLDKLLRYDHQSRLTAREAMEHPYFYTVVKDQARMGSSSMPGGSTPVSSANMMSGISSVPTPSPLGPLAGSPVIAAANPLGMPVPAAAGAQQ
T2 sequence (P67870 whole entry partner): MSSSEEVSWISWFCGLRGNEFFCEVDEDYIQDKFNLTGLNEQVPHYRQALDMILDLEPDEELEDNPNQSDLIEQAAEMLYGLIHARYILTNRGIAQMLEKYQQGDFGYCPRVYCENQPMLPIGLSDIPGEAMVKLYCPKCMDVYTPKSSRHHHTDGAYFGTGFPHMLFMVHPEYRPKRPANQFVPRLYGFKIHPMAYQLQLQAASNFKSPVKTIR

- potency relative to 2′-thioadenosine on PLK1 (PLK1 [1]): about 3 fold
- inhibition of PLK1 function (PLK1 [1]): did
- IC50 (PLK1 [1]; [3]): 39 µM
- IC50 (PLK1 [1]; [4]): > 200 µM
- inhibition of CKII enzymatic activity (Human recombinant CKII): No significant inhibition
Compound: Nc1ncnc2c1ncn2[C@@H]1O[C@H](CS)[C@@H](O)[C@H]1O [5′-Thioadenosine, 5′-Deoxy-5′-thioadenosine]
- mode of PLK1 inhibition with respect to ATP (PLK1 [2]; listed as 5-′thioadenosine): none of these compounds were classical competitive inhibitors
- mode of PLK1 inhibition with respect to ATP (PLK1 [2]; listed as 5′-thioadenosine): dependent on ATP concentration but not competitive with ATP

Compound: CCN1C(=O)C=CC1=O [N-ethylmaleimide]
- PLK1 inhibition, result in words (PLK1 [1]): to some extent
- IC50 (PLK1 [1]; [3]): 55 µM
- IC50 (PLK1 [1]; [4]): > 200 µM
- inhibition of CKII enzymatic activity (Human recombinant CKII): No significant inhibition

- IC50 (PLK1 [1]; [5]): > 500 µM
Compound: CCCCCCOC(=O)[C@]1(O)C[C@@H]2O[C@@]1(C)n1c3ccccc3c3c4c(c5c6ccccc6n2c5c31)C(=O)NC4 [KT5720]
- inhibition of PLK1 (PLK1 [1]): none of these compounds caused any inhibition
- IC50 (PKA): 0.056 µM

- IC50 (PLK1 [1]; [6]): > 100 µM
Compound: O=c1c(O)c(-c2ccccc2)oc2cc(O)cc(O)c12 [Galangin]

- PLK1 inhibition, result in words (PLK1 [1]): inactivity
- IC50 (PLK1 [1]; [6]): > 100 µM
Compound: O=c1c(O)c(-c2ccc(O)c(O)c2)oc2cc(O)ccc12 [fisetin]

- IC50 (PLK1 [1]; [6]): > 100 µM
Compound: O=c1c(O)c(-c2ccc(O)cc2)oc2cc(O)cc(O)c12 [Kaempferol]

- IC50 (PLK1 [1]; [5]): > 500 µM
Compound: Cc1ncc2ccccc2c1C#N [4-Cyano-3-methylisoquinoline]
- inhibition of PLK1 (PLK1 [1]): none of these compounds caused any inhibition
- IC50 (PKA): 0.03 µM

- IC50 (PLK1 [1]; [6]): > 100 µM
Compound: O=c1cc(-c2ccc(O)c(O)c2)oc2cc(O)cc(O)c12 [Luteolin]

- PLK1 inhibition, result in words (PLK1 [1]): lack of inhibition
Compound: O=c1c(O)c(-c2ccc(O)cc2)oc2cc(O)cc(O)c12 [kaepmpferol]

Compound: O=S(=O)(NCCNC/C=C/c1ccc(Br)cc1)c1cccc2cnccc12 [Inhibitor H89]
- inhibition of PLK1 (PLK1 [1]): none of these compounds caused any inhibition

- PLK1 inhibition, result in words (PLK1 [1]): no detectable inhibition
- IC50 (PLK1 [1]; [5]): > 200 µM
Compound: O=C(N[C@@H]1CNCCC[C@H]1OC(=O)c1cc(O)c(C(=O)c2c(O)cccc2C(=O)O)c(O)c1)c1ccc(O)cc1 [Balanol]

- PLK1 inhibition, result in words (PLK1 [1]): inactivity
- IC50 (PLK1 [1]; [6]): > 100 µM
Compound: COc1ccc(-c2oc3cc(O)cc(O)c3c(=O)c2O)cc1 [kaempferide]

- PLK1 inhibition, result in words (PLK1 [1]): inactive
Compound: O=c1c(O)c(-c2ccccc2O)oc2cc(O)cc(O)c12 [Datescetin]

Compound: O=c1c(O)c(-c2cc(O)c(O)c(O)c2)oc2cc(O)cc(O)c12 [Myricetin]
- PLK1 inhibition, result in words (PLK1 [1]): lack of inhibition
- IC50 (PLK1 [1]; [6]): > 100 µM
- IC50 (PLK1 [1]; [7]): > 100 µM

- inhibition of PLK1 function (PLK1 [1]): did not inhibit
- IC50 (PLK1 [1]; [3]): > 200 µM
- IC50 (PLK1 [1]; [4]): > 200 µM
- inhibition of CKII enzymatic activity (Human recombinant CKII): No significant inhibition
Compound: Nc1ncnc2c1ncn2[C@@H]1O[C@H](CO)[C@@H](O)[C@H]1O [Adenosine]
- mode of PLK1 inhibition with respect to ATP (PLK1 [2]): none of these compounds were classical competitive inhibitors

- IC50 (PLK1 [1]; [7]): 4 µM
Compound: CNc1nc(C)c(-c2ccnc(Nc3ccc(O)cc3)n2)s1 [4-[4-(4-methyl-2-methylamino-thiazol-5-yl)-pyrimidin-2-ylamino]-phenol]

- PLK1 inhibition, result in words (PLK1 [1]): moderate inhibition
- IC50 (PLK1 [1]; Table 12, read-out: Plk1 IC50): 5 µM
- IC50 (PLK1 [1]; [5]): 10 µM
Compound: Purvalanol A
- IC50 (PKA): > 100 µM

- PLK1 inhibition, result in words (PLK1 [1]): the most potent in the flavonoid series
- IC50 (PLK1 [1]; [6]): 12.6 ± 1.4 µM
- IC50 (PLK1 [1]; [7]): 12 µM
Compound: O=c1c(O)c(-c2ccc(O)cc2O)oc2cc(O)cc(O)c12 [morin hydrate]

Compound: C[CH2][Hg][S]c1ccccc1C(=O)[O-].[Na+] [Thimerosal]
- PLK1 inhibition, result in words (PLK1 [1]): to some extent
- IC50 (PLK1 [1]; [3]): 22 µM
- IC50 (PLK1 [1]; [4]): > 200 µM
- mode of PLK1 inhibition with respect to ATP (PLK1 [2]): none of these compounds were classical competitive inhibitors
- inhibition of CKII enzymatic activity (Human recombinant CKII): No significant inhibition

- inhibition of PLK1 function (PLK1 [1]): did
- IC50 (PLK1 [1]; [3]): 120 µM
- IC50 (PLK1 [1]; [4]): > 200 µM
- inhibition of CKII enzymatic activity (Human recombinant CKII): No significant inhibition
Compound: Nc1ncnc2c1ncn2[C@@H]1O[C@H](CO)[C@@H](O)[C@H]1S [2′-Thioadenosine]
- mode of PLK1 inhibition with respect to ATP (PLK1 [2]): none of these compounds were classical competitive inhibitors

- PLK1 inhibition, result in words (PLK1 [1]): inactivity
Compound: O=c1c(O)c(-c2ccccc2)oc2cc(O)cc(O)c12 [gangolin]

- IC50 (PLK1 [1]; [6]): > 100 µM
Compound: O=c1c(O)c(-c2ccccc2O)oc2cc(O)cc(O)c12 [Datescefin]

- IC50 (PLK1 [1]; [5]): > 500 µM
Compound: Cl.NCCNS(=O)(=O)c1cccc2c(Cl)cccc12 [Inhibitor A3]
- inhibition of PLK1 (PLK1 [1]): none of these compounds caused any inhibition
- IC50 (PKA): 11 µM

- PLK1 inhibition, result in words (PLK1 [1]): weak inhibition
- IC50 (PLK1 [1]; [6]): 60 µM
Compound: O=c1c(O)c(-c2cc(O)c(O)c(O)c2)oc2cc(O)ccc12 [robinetin]

Compound: NC(=O)CI [Iodoacetamide]
- PLK1 inhibition, result in words (PLK1 [1]): to some extent
- IC50 (PLK1 [1]; IC50 (μM) + DTT, in the presence of dithiothreitol (1 mM)): > 200 µM
- IC50 (PLK1 [1]; IC50 (μM) − DTT, in the absence of dithiothreitol): 83 µM
- inhibition of CKII enzymatic activity (Human recombinant CKII): No significant inhibition

- PLK1 inhibition, result in words (PLK1 [1]): inactivity
- IC50 (PLK1 [1]; [6]): > 100 µM
Compound: O=c1c(-c2ccc(O)cc2)coc2cc(O)ccc12 [daidzein]

Compound: COC[C@H]1OC(=O)c2coc3c2[C@@]1(C)C1=C(C3=O)[C@@H]2CCC(=O)[C@@]2(C)C[C@H]1OC(C)=O [Wortmannin]
- PLK1 inhibition, result in words (PLK1 [1]): very potent inhibitor
- IC50 (CDK2): > 10 µM
- mode of PLK1 inhibition with respect to ATP (PLK1 [2]): totally independent of ATP; also recorded: completely ATP-independent
